Laboratory results: paper PMC11117207, “Discovery of Antimicrobial Agents Based on Structural and Functional Study of the Klebsiella pneumoniae MazEF Toxin–Antitoxin System” (Antibiotics, 2024)

System: K. pneumoniae MazEF complex
Test: In vitro assay of MazEF complex disruption by peptides (RNase Alert fluorescence assay)
Assay type: biochemical, Klebsiella pneumoniae
Settings: 20 μM peptide, 4 μM MazEF complex, 30 min at 37 °C; for disruption of the MazEF complex (RNase activity): 20 mM Tris pH 8.0, 200 mM NaCl, RFU of 4 μM MazF = 100%, of 4 μM MazEF ~0%, three independent experiments
From the text: To validate the ribonuclease activity of MazF toxin, an RNase Alert Kit (IDT, Coralville, IA, USA) was used. The principle is as follows. In the normal state, a fluorophore is covalently attached to one end of a synthetic RNA strand and is quenched by a quencher group at the other end of the RNA strand. However, the synthetic RNA is digested and the quencher is released when the ribonuclease interacts with substrates. Then, the released fluorophore emits fluorescence at 520 nm upon excitation at 490 nm. The resulting relative fluorescence units (RFU) were detected using a SPECTRAmax GEMINI XS spectrofluorometer (Molecular Devices, San Jose, CA, USA). All experiments were performed in triplicate.
In addition to the disruption assay using small molecules, 10 short peptides that mimic the binding region between MazE and MazF were designed based on the tertiary crystal structure of the MazEF complex and purchased from ANYGEN (http://www.anygen.com, accessed on 21 April 2024) (Table 1). Among the peptides tested, six were designed to mimic the region on MazE where it binds to MazF, while the remaining four were designed to mimic the region on MazF where it binds to MazE. This design was chosen to investigate the interactions between MazE and MazF and their respective binding regions. The main principle and process were consistent with those of complex disruption by small molecules, which has been mentioned above. The concentration of the MazEF complex was fixed at 4 μM, and the concentration of competing peptides was 20 μM. Furthermore, all of the proteins and peptides used in this assay were prepared in 20 mM Tris, pH 8.0, and 200 mM NaCl. The MazEF complex was incubated with the peptides for 30 min at 37 °C before fluorescence measurement.

KSLDWKAR [Peptide I, MazF-mimicking peptide KSLDWKAR (79–86)]
RNase activity compared with the related peptide (in words): dramatic increase in RNase activity

YLCDSQGKE [Peptide B, MazE-mimicking peptide … (66–74)]
RNase activity compared with the related peptide (in words): did not exhibit significant differences from Peptide A

QVKSLDWKAR [Peptide J, MazF-mimicking peptide […]; (77–86)]
RNase activity compared with the related peptide (in words): dramatic increase in RNase activity

DSQGKE [Peptide A, MazE-mimicking peptide DSQGKE (69–74)]
disruption of the MazEF complex (RNase activity): approximately 65%

QVKSLD [Peptide H, MazF-mimicking peptide QVKSLD (77–82)]
RNase activity compared with the related peptide (in words): no significant difference

YLCDSQGKEML [Peptide E, MazE-mimicking peptide […]; (66–76)]
disruption of the MazEF complex (RNase activity): 80−83%

EYLCDSQGKEML [Peptide F, MazE-mimicking peptide […]; (65–76)]
disruption of the MazEF complex (RNase activity): 80−83%

KSLD [Peptide G, MazF-mimicking peptide KSLD (79–82)]
RNase activity compared with the related peptide (in words): no significant difference

EYLCDSQGKE [Peptide C, MazE-mimicking peptide […]; (65–74)]
RNase activity compared with the related peptide (in words): did not exhibit significant differences from Peptide A
